The assay concerns CD2F1 mice, L1210 leukemia ip, survival T/C. The assay is described as follows: NCI In Vivo Anticancer Drug Screen. Data for tumor model L1210 Leukemia (intraperitoneal) in CD2F1 (CDF1) mice. Conditions: higher = longer survival. The essentials:
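Read-out first: treated-group measurement over vehicle-control measurement, expressed as a ratio. Animals bore a transplanted tumor line and were dosed with compound or vehicle.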

The mark [1] stands for this setting: endpoint: mean survival time, dose: 100.0 mg/kg/injection, schedule: Q01DX009 (ip), vehicle: saline with Tween-80.
The mark [2] stands for this setting: endpoint: mean survival time, dose: 100.0 mg/kg/injection, schedule: Q04DX003 (ip), vehicle: saline with Tween-80.
Where [3] appears, read: endpoint: mean survival time, dose: 200.0 mg/kg/injection, schedule: Q04DX003 (ip), vehicle: saline with Tween-80.
Where [4] appears, read: endpoint: mean survival time, dose: 100.0 mg/kg/injection, schedule: Q01DX001 (ip), vehicle: saline with Tween-80.
Where [5] appears, read: endpoint: mean survival time, dose: 200.0 mg/kg/injection, schedule: Q01DX001 (ip), vehicle: saline with Tween-80.
[6] abbreviates: endpoint: mean survival time, dose: 200.0 mg/kg/injection, schedule: Q01DX009 (ip), vehicle: saline with Tween-80.
The mark [7] stands for this setting: endpoint: mean survival time, dose: 400.0 mg/kg/injection, schedule: Q01DX009 (ip), vehicle: saline with Tween-80.
Setting [8] is: endpoint: mean survival time, dose: 400.0 mg/kg/injection, schedule: Q04DX003 (ip), vehicle: saline with Tween-80.

Values joined by “and” are separate entries in the source; they are usually repeats but may differ in a detail not shown here. Identical values can stand only once. Inconclusive results and toxic doses are left out.

For the molecule `C1CN1c1nc(N2CC2)nc(N2CC2)n1`, the T/C (endpoint: mean survival time, dose: 0.05 mg/kg/injection, schedule: Q01DX009 (ip), vehicle: saline) was 100 % of control; the T/C (endpoint: mean survival time, dose: 0.06 mg/kg/injection, schedule: Q01DX009 (ip), vehicle: saline) is 150 % of control; the T/C (endpoint: mean survival time, dose: 0.06 mg/kg/injection, schedule: Q03HX008 (ip), vehicle: saline) was 100 % of control; the T/C (endpoint: mean survival time, dose: 0.06 mg/kg/injection, schedule: Q03HX016 (ip), vehicle: saline) was 95 % of control and 97 % of control; the T/C (endpoint: mean survival time, dose: 0.06 mg/kg/injection, schedule: Q03HX024 (ip), vehicle: saline) is 113 % of control; the T/C (endpoint: mean survival time, dose: 0.1 mg/kg/injection, schedule: Q01DX009 (ip), vehicle: saline) is 107 % of control. Also, the T/C was 215 % of control and 100 % of control (endpoint: mean survival time, dose: 0.12 mg/kg/injection, schedule: Q01DX009 (ip), vehicle: saline); 110 % of control (endpoint: mean survival time, dose: 0.13 mg/kg/injection, schedule: Q03HX008 (ip), vehicle: saline); 104 % of control and 110 % of control (endpoint: mean survival time, dose: 0.13 mg/kg/injection, schedule: Q03HX016 (ip), vehicle: saline); 124 % of control (endpoint: mean survival time, dose: 0.13 mg/kg/injection, schedule: Q03HX024 (ip), vehicle: saline); 117 % of control (endpoint: mean survival time, dose: 0.2 mg/kg/injection, schedule: Q01DX009 (ip), vehicle: saline); 117 % of control (endpoint: mean survival time, dose: 0.25 mg/kg/injection, schedule: Q01DX005 (ip), vehicle: saline). In addition, the T/C (endpoint: mean survival time, dose: 0.25 mg/kg/injection, schedule: Q01DX009 (ip), vehicle: saline) is 109 % of control; the T/C (endpoint: mean survival time, dose: 0.25 mg/kg/injection, schedule: Q03HX024 (ip), vehicle: saline) is 174 % of control; the T/C (endpoint: mean survival time, dose: 0.4 mg/kg/injection, schedule: Q01DX009 (ip), vehicle: saline) was 155 % of control; the T/C (endpoint: mean survival time, dose: 0.5 mg/kg/injection, schedule: Q01DX001 (ip), vehicle: saline) is 114 % of control; the T/C (endpoint: mean survival time, dose: 0.5 mg/kg/injection, schedule: Q01DX005 (ip), vehicle: saline) was 150 % of control; the T/C (endpoint: mean survival time, dose: 0.5 mg/kg/injection, schedule: Q01DX007 (ip), vehicle: saline) is 183 % of control. In addition, the T/C was 185 % of control (endpoint: mean survival time, dose: 0.5 mg/kg/injection, schedule: Q03HX008 (ip), vehicle: saline); 183 % of control (endpoint: mean survival time, dose: 0.5 mg/kg/injection, schedule: Q03HX016 (ip), vehicle: saline); 101 % of control (endpoint: mean survival time, dose: 0.5 mg/kg/injection, schedule: Q03HX024 (ip), vehicle: saline); 107 % of control (endpoint: mean survival time, dose: 0.5 mg/kg/injection, schedule: Q08DX002 (ip), vehicle: saline); 100 % of control (endpoint: mean survival time, dose: 0.5 mg/kg/injection, schedule: Q11DX002 (ip), vehicle: saline); 190 % of control (endpoint: mean survival time, dose: 1.0 mg/kg/injection, schedule: Q01DX001 (ip), vehicle: saline). Also, the T/C reads like this: (endpoint: mean survival time, dose: 1.0 mg/kg/injection, schedule: Q01DX005 (ip), vehicle: saline) 86 % of control; (endpoint: mean survival time, dose: 1.0 mg/kg/injection, schedule: Q01DX007 (ip), vehicle: saline) 92 % of control; (endpoint: mean survival time, dose: 1.0 mg/kg/injection, schedule: Q03DX003 (ip), vehicle: saline) 183 % of control; (endpoint: mean survival time, dose: 1.0 mg/kg/injection, schedule: Q08DX002 (ip), vehicle: saline) 204 % of control; (endpoint: mean survival time, dose: 1.0 mg/kg/injection, schedule: Q11DX002 (ip), vehicle: saline) 97 % of control; (endpoint: mean survival time, dose: 2.0 mg/kg/injection, schedule: Q01DX001 (ip), vehicle: saline) 154 % of control and 157 % of control. In addition, the T/C runs as follows: (endpoint: mean survival time, dose: 2.0 mg/kg/injection, schedule: Q03DX003 (ip), vehicle: saline) 211 % of control; (endpoint: mean survival time, dose: 2.0 mg/kg/injection, schedule: Q08DX002 (ip), vehicle: saline) 184 % of control; (endpoint: mean survival time, dose: 2.0 mg/kg/injection, schedule: Q11DX002 (ip), vehicle: saline) 100 % of control; (endpoint: mean survival time, dose: 3.0 mg/kg/injection, schedule: Q01DX001 (ip), vehicle: saline) 169 % of control and 338 % of control; (endpoint: mean survival time, dose: 4.0 mg/kg/injection, schedule: Q01DX001 (ip), vehicle: saline) 120 % of control; (endpoint: mean survival time, dose: 4.0 mg/kg/injection, schedule: Q08DX002 (ip), vehicle: saline) 102 % of control. Moreover, the T/C runs as follows: (endpoint: mean survival time, dose: 4.0 mg/kg/injection, schedule: Q11DX002 (ip), vehicle: saline) 153 % of control; (endpoint: mean survival time, dose: 62.0 micrograms/kg/injection, schedule: Q01DX009 (ip), vehicle: saline) 123 % of control; (endpoint: mean survival time, dose: 125.0 micrograms/kg/injection, schedule: Q01DX009 (ip), vehicle: saline) 173 % of control; (endpoint: median survival time, dose: 0.25 mg/kg/injection, schedule: Q01DX009 (ip), vehicle: saline) 100 % of control; (endpoint: median survival time, dose: 0.5 mg/kg/injection, schedule: Q01DX009 (ip), vehicle: saline) 150 % of control and 185 % of control; (endpoint: median survival time, dose: 1.0 mg/kg/injection, schedule: Q01DX009 (ip), vehicle: saline) 121 % of control and 100 % of control.

For the molecule `C=CCOC(=O)Oc1ccccc1Cl`, the T/C is 102 % of control under setting [1], 98 % of control under setting [2] and 95 % of control under setting [3].

As to `O=C(O)c1c(Cl)c(-c2c(Cl)c(C(=O)O)c(Cl)c([N+](=O)[O-])c2Cl)c(Cl)c([N+](=O)[O-])c1Cl`, the T/C was 93 % of control under setting [4]; 94 % of control under setting [5]; 89 % of control (endpoint: mean survival time, dose: 400.0 mg/kg/injection, schedule: Q01DX001 (ip), vehicle: saline with Tween-80).

With `COc1ccc(C(=O)O)c(N)c1`, the T/C is, setting by setting: under setting [1], 95 % of control; under setting [2], 94 % of control; under setting [6], 92 % of control; under setting [3], 97 % of control; under setting [7], 101 % of control; under setting [8], 97 % of control.

Take `N#Cc1c(F)c(F)c(Oc2c(F)c(F)c(F)c(F)c2F)c(F)c1F`: the T/C runs as follows: under setting [2], 94 % of control; under setting [3], 91 % of control.

In the case of `Cc1cccc(C)c1NC(=O)CCl`, the T/C runs as follows: under setting [4], 103 % of control; under setting [5], 100 % of control.

As for `CN(C)N=Nc1ccc(Cl)cc1C(=O)O`, the T/C by setting is: (endpoint: mean survival time, dose: 266.0 mg/kg/injection, schedule: Q04DX003 (ip), vehicle: other) 114 % of control; (endpoint: mean survival time, dose: 400.0 mg/kg/injection, schedule: Q04DX003 (ip), vehicle: other) 120 % of control.

On to `[Cl][Pt+2][Cl].[NH-]C1CCCCC1[NH-]` (stereo unspecified), for which the T/C by setting is: (endpoint: mean survival time, dose: 0.39 mg/kg/injection, schedule: Q04DX003 (ip), vehicle: saline with Tween-80) 124 % of control; (endpoint: mean survival time, dose: 1.56 mg/kg/injection, schedule: Q04DX002 (ip), vehicle: saline) 119 % of control and 124 % of control; (endpoint: median survival time, dose: 20.0 mg/kg/injection, schedule: Q04DX003 (ip), vehicle: saline) 100 % of control.

Take `O=C1CCCC1(c1ccccc1)c1ccccc1`: the T/C under setting [1] is 101 % of control; the T/C under setting [2] is 91 % of control; the T/C under setting [6] is 101 % of control; the T/C under setting [3] was 91 % of control; the T/C under setting [7] was 95 % of control; the T/C under setting [8] is 94 % of control.

With `CC1=CC(c2ccccc2)(c2ccccc2)c2ccccc21`, the T/C was 104 % of control under setting [4] and 91 % of control under setting [5].

On to `O=C1OC(Cc2ccccc2)(c2ccccc2)c2ccccc21` (stereo unspecified), for which the T/C reads like this: under setting [2], 88 % of control; under setting [3], 88 % of control.

Regarding `Nc1nc([Se]Cc2ccc([N+](=O)[O-])cc2)c2ncn(C3OC(CO)C(O)C3O)c2n1` (stereo unspecified), the T/C reads like this: (endpoint: mean survival time, dose: 25.0 mg/kg/injection, schedule: Q01DX009 (ip), vehicle: saline) 111 % of control; (endpoint: mean survival time, dose: 50.0 mg/kg/injection, schedule: Q01DX009 (ip), vehicle: saline) 119 % of control; (endpoint: mean survival time, dose: 100.0 mg/kg/injection, schedule: Q01DX009 (ip), vehicle: saline) 100 % of control.

For the origin of these results see PubChem BioAssay AID256 (DTP/NCI, 2004).
